Reference: patent publication US20110224245A1, “Treatment Of Neurological Disorders Using Huperzine” (President and Fellows of Harvard College, priority 2008, published 2011)

Tests used:
[1] = test system: formalin-induced paw-licking; experiment: Formalin test (paw licking) in mice; type: in vivo
Protocol: The formalin test for antinociceptive activity is described in numerous publications, e.g., Hunskaar, S., O. B. Fasmer, and K. Hole, J. Neurosci. […] The formalin test is accepted as an art recognized model of persistent clinical pain.
Male Swiss Webster NIH mice (20-30 g; Harlan, San Diego, Calif.) were used in the experiments described herein. Food was withdrawn on the day of experiment. Mice were placed in Plexiglass jars for at least 1 hour to accommodate to the environment. Following the accommodation period, mice were weighed and given either a huperzine compound administered intraperitoneal (i.p.) or oral (p.o.), or the appropriate volume of vehicle (10% Tween-80). Fifteen minutes after the i.p. dosing, and 30 minutes after the p.o. dosing mice were injected with formalin (20 μL of 5% formaldehyde solution in saline) into the dorsal surface of the right hind paw. Mice were transferred to the Plexiglass jars and monitored for the amount of time spent licking or biting the injected paw. Periods of licking and biting were recorded in 5 minute intervals for 40 minutes after the formalin injection. All experiments were done in a blinded manner. The early phase (acute) of the formalin response is measured as licking/biting between 0-5 minutes, and the late phase (inflammatory) is measured from 10-40 minutes. Differences between vehicle and drug treated groups are analyzed by one-way analysis of variance (ANOVA). A P value<0.05 is considered significant.
Fifteen minutes after the i.p. dosing, mice were injected with formalin (20 μL of 5% formaldehyde solution in saline) into the dorsal surface of the right hind paw. Periods of licking and biting were recorded in 5 minute intervals for 40 minutes after the formalin injection as shown below in Tables 1 and 2. All experiments were done according to the art-recognized Anticonvulsant Screening Program of the NINDS at the University of Utah.
Duration of paw licking in the tables below is expressed in seconds.

[2] = test system: maximal electroshock seizure (MES); experiment: Maximal Electroshock (MES) model, mice i.p.; type: in vivo; settings: 1 mg/kg
Protocol: (§1) Huperzine A was evaluated in the Maximal Electroshock (MES) and Subcutaneous Metrazol (pentylenetetrazol; SCMET) models of generalized tonic-clonic and myoclonic seizures, respectively in mice and rats.
The maximal electroshock (MES) model is an art recognized test, useful to investigate the efficacy of therapeutic agents against grand mal seizures. Maximal seizures were induced by the application of electrical current to the brain via corneal electrodes. The stimulus parameters for mice were 50 mA in a pulse of 60 Hz for 200 ms. The animals were given the huperzine dissolved in methyl cellulose and spasm inhibition was recorded as a measure of anticonvulsant activity.
Huperzine A was either administered in a soluble form (SOL) or as a suspension (SUS). […]
(§2) Male, 18-25 g CF1 mice and 100-125 g Sprague-Dawley rats (Charles River Laboratories, Wilmington, Mass.) were used as the experimental animals. […] The ability of the test substance to prevent seizures induced by 6 Hz corneal stimulation (32 mA, 3 sec duration) was assessed at various times after i.p. administration of 1 mg/kg HupA For assessment of hippocampal kindling, HupA (1 mg/kg, i.p.) was administered. The ability of the compound to block the expression of hippocampal kindled seizures was evaluated using the rapid hippocampal kindling model (White et al., 2002). […]

[3] = test system: Subcutaneous Metrazol (pentylenetetrazol; SCMET) seizures; experiment: Subcutaneous Metrazol (SCMET / scPTZ) model, mice i.p.; type: in vivo; settings: (MJ) animals displaying myoclonic jerks
Protocol: as §1
(§3) The Subcutaneous Metrazole (SCMET) model is also an art-recognized test for therapeutic agents for epilepsy, and in particular, is useful for investigating petite mal seizures. A Metrazole dose of 85 mg/kg was administered subcutaneously to induce seizures. Huperzine was then administered and the animals observed.
(§4) Huperzine A was either administered in a soluble form (SOL) or as a suspension (SUS). […] To produce the suspension, huperzine A was ground to a powder using a mortar and pestle, and the powder mixed with methyl cellulose. This mixture was then sonicated to produce a suspension that was subsequently administered to mice in the weight range of 19.0 to 25.5 g. The data are presented as the number of mice showing an effect (N) from the full number of mice (F) tested. […] At four hours post administration, all three mice were protected (i.e., 100% were protected).
as §2, with “animals. Animals were pretreated intraperitoneally (i.p.) with increasing doses of HupA and tested at various times after administration for protection against tonic extension (MES test), minimal clonic (s.c. PTZ test), limbic (6 Hz), or secondarily generalized (kindled rat) seizures. Seizure testing was carried out as follows.” for “animals.”

[4] = test system: Subcutaneous Metrazol (pentylenetetrazol; SCMET) seizures; experiment: Subcutaneous Metrazol (SCMET / scPTZ) model, rats, oral; type: in vivo
Protocol: as §1, §3
Peak anticonvulsant activity was observed one-hour after p.o. administration of 1 mg/kg.

[5] = test system: rats; experiment: Toxicity (TOX) / minimal motor impairment, rats, oral; type: in vivo
[6] = test system: 6 Hz seizures; experiment: 6 Hz seizure test, mice i.p.; type: in vivo; settings: for Time to Peak Effect N/F: 6 HZ, 0.83 mg/kg
Protocol: HupA was also evaluated for its ability to modify tonic extension, minimal clonic, limbic seizures in the maximal electroshock seizure (MES), subcutaneous pentylenetetrazol (sc PTZ), and 6 Hz seizure tests following intraperitoneal administration. These three tests are highly predictive of efficacy against human generalized tonic-clonic (MES), generalized myoclonic (sc PTZ), and refractory limbic (6 Hz) seizures, respectively. In addition, it was tested for its ability to prevent the expression of Stage V seizures in the hippocampal kindled rat model of partial epilepsy.
Male, 18-25 g CF1 mice and 100-125 g Sprague-Dawley rats (Charles River Laboratories, Wilmington, Mass.) were used as the experimental animals. Animals were pretreated intraperitoneally (i.p.) with increasing doses of HupA and tested at various times after administration for protection against tonic extension (MES test), minimal clonic (s.c. PTZ test), limbic (6 Hz), or secondarily generalized (kindled rat) seizures. Seizure testing was carried out as follows. For the MES and 6 Hz tests, a drop of anesthetic/electrolyte solution (0.5% tetracaine hydrochloride in 0.9% saline) was applied to the eyes of each animal prior to placement of the corneal electrodes. The electrical stimulus in the MES test was 50 mA, 60 Hz, for mice and 150 mA, 60 Hz, for rats, delivered for 0.2 sec (White et al., 2002, In R. H. Levy et al., eds. Antiepileptic Drugs, 5th edition, p. 36-48, Philadelphia: Lippincott Williams & Wilkins). The ability of the test substance to prevent seizures induced by 6 Hz corneal stimulation (32 mA, 3 sec duration) was assessed at various times after i.p. administration of 1 mg/kg HupA For assessment of hippocampal kindling, HupA (1 mg/kg, i.p.) was administered. The ability of the compound to block the expression of hippocampal kindled seizures was evaluated using the rapid hippocampal kindling model (White et al., 2002). Animals not displaying secondarily generalize seizures were considered protected.

[7] = Solubility in methyl cellulose solvent; type: physicochemical
Excerpt: as §4

[8] = test system: patients; settings: published clinical studies; mainly cholinergic (dizziness, nausea, gastrointestinal symptoms, sweating, depressed heart rate); cited from earlier work

Compound: C/C=C1\[C@H]2C=C(C)C[C@]1(N)c1ccc(=O)[nH]c1C2 [Huperzine A]
- Area Under the Curve, % of Control ([1]; 0.5 mg/kg i.p., Acute phase): 2.8%
- Area Under the Curve, % of Control ([1]; 0.5 mg/kg i.p., Inflammatory phase): 0.0%
- inhibition of phase 1 (acute) pain response ([1]; 1 mg/kg i.p.): complete inhibition
- inhibition of phase 2 (inflammatory) pain response ([1]; 1 mg/kg i.p.): complete inhibition
- Area Under the Curve, % of Control ([1]; 1 mg/kg i.p., Acute phase): 0.0%
- Area Under the Curve, % of Control ([1]; 1 mg/kg i.p., Inflammatory phase): 0.0%
- protection in the mouse MES test (FIG. 1) [2]: time-dependent protection
- SCMET N/F (mice showing an effect / mice tested) ([3]; 1 mg/kg i.p., SOL, 0.5 h): 3/5 (MJ)^1
- SCMET N/F (mice showing an effect / mice tested) ([3]; 3 mg/kg i.p., SUS, 0.5 h): 1/1 (MJ)
- SCMET N/F (mice showing an effect / mice tested) ([3]; 10 mg/kg i.p., SUS, 4.0 h): 1/1 (MJ)
- time of peak anticonvulsant activity ([4]; after p.o. administration of 1 mg/kg): one-hour
- time of peak activity post administration ([4]; rats, 1 mg/kg oral): between 30 minutes and two hours
- behavioral impairment at anticonvulsant doses [5]: marked motor impairment
- toxicity ([5]; 1 mg/kg oral): no toxicity
- protection in the mouse 6 Hz test (FIG. 1) ([6]; 0.8 mg/kg): time-dependent protection
- Time to Peak Effect N/F ([6]; 0.25 h): 1/4
- Time to Peak Effect N/F ([6]; 0.5 h): 1/4
- Time to Peak Effect N/F ([6]; 1.0 h): 4/4
- Time to Peak Effect N/F ([6]; 2.0 h): 2/4
- Time to Peak Effect N/F ([6]; 4.0 h): 0/4
- protection against 6 Hz seizures (FIG. 2) ([6]; mouse, in vivo): dose-dependent protection
- solubility in the methyl cellulose solvent ([7]; at concentrations of 0.1-0.3 mg/kg): readily soluble
- solubility in the methyl cellulose solvent ([7]; at higher concentrations (administered as suspension)): not soluble
- adverse effects in patients [8]: adverse effects were noted infrequently
